The source of these data is patent US10828271B2, “Method for treating pleuroperitoneal membrane cancers by locally injecting disulfiram preparation” (NUOMA (BEIJING) TECHNOLOGY CO., LTD, priority 2016, dated 2020).

Where two headings read alike, the source gives them in different places. Bounds are passed on as bounds.

Data set [1] is described as follows: Anticancer activity of disulfiram metabolites (unpublished data). Conditions: unpublished data of the applicant.
Data set [2] has as its system MSTO mesothelioma cells. Description: MTT cell survival assay, MSTO mesothelioma cells. Type of data set: cell-based, human. Conditions: for IC50: MSTO cells, 3 days incubation, MTT, read-out: IC50s (nM), inhibition of mesothelioma growth, MSTO; for Synergy index CI at ED50, MSTO / Synergy index CI at ED75, MSTO / Synergy index CI at ED90, MSTO: named drug combined with DS + Cu. The protocol: (§1) Separate incubations were performed with pemetrexed, DS/Cu (disulfiram/copper gluconate) and cisplatin for 3 days. Cell survival was determined via an MTT assay.
For orientation: Formazan colour is commonly taken as a measure of viable cells.

The next data set deals with Ju77 mesothelioma cells. Description: MTT cell survival assay, Ju77 mesothelioma cells. Conditions: for IC50: Ju77 cells, 3 days incubation, MTT, read-out: IC50s (nM), inhibition of mesothelioma growth, Ju77; for Synergy index CI at ED50, Ju77 / Synergy index CI at ED75, Ju77 / Synergy index CI at ED90, Ju77: named drug combined with DS + Cu. Type of data set: cell-based, human. The procedure:
as §1

The test system of a further data set is E58 mesothelioma cells. Description: MTT cell survival assay, E58 mesothelioma cells. Type of data set: cell-based, human. Particulars: for Synergy index CI at ED50, E58 / Synergy index CI at ED75, E58 / Synergy index CI at ED90, E58: named drug combined with DS + Cu. The protocol: as §1
In a further data set the test system is 2591 mesothelioma cells. Briefly: MTT cell survival assay, 2591 mesothelioma cells. Type of data set: cell-based, human. Particulars: for IC50: 2591 cells, 3 days incubation, MTT, read-out: IC50s (nM), inhibition of mesothelioma growth, 2591; for Synergy index CI at ED50, 2591 / Synergy index CI at ED75, 2591 / Synergy index CI at ED90, 2591: named drug combined with DS + Cu. The protocol:
as §1

Data set [3] has as its system A2780 ovarian cancer cells. Briefly: Cell survival assay, A2780 ovarian cancer cells. Type of data set: cell-based, human.
Data set [4] concerns SKOV-3 ovarian cancer cells. Briefly: Cell survival assay, SKOV-3 ovarian cancer cells. The class given is cell-based, human. Conditions: cisplatin (CDDP) combined with DS + Cu.
For data set [5], the system named is MSTO mesothelioma cells. Briefly: Peritoneal MSTO mesothelioma model in CD1 nude mice. The class given is in vivo, mouse.
Protocol: (§2) MSTO mesothelioma cells and SKVO-3 ovarian cancer cells were cultured in a DMEM medium containing 10% fetal calf serum supplemented with 10 mg/ml streptomycin and 2 mmol/L L-glutamine at 37° C. under a 5% CO2 atmosphere.
(§3) MSTO mesothelioma cells and SKVO-3 ovarian cancer cells were injected at a rate of 3×10^6/animal into female CD1 nude mice and animals were randomly divided into two groups (10 animals/group). […] Drug administration was performed three times per week. The mice were weighed three times per week. Once the experiment was complete, the animals were sacrificed via cervical dislocation. The abdominal cavities of all mice were opened to observe and assess ascites formation and abdominal wall tumors.
Data set [6] has as its system SKVO-3 ovarian cancer cells. Briefly: Peritoneal ovarian cancer model in CD1 nude mice. Type of data set: in vivo, mouse.
Protocol: as §2, §3
The next data set concerns S180 ascites tumor cells. Conditions: for Formation of ascites and masses at laparotomy: three weeks after cell injection.
The conditions of data set [7]: absorbed disulfiram in the bloodstream; cited from earlier work.
For data set [8] the following is noted: oral dose of 500 mg; cited from earlier work.
[9] abbreviates: disulfiram 40 μg/animal i.p. + CuGlu oral, as of Day 90.
The mark [10] stands for this setting: disulfiram 5 mg/kg i.p. + CuGlu 5 mg/kg oral, three times per week, Day 21.

Protocol for S180 ascites tumor cells: S180 ascites cells were purchased from the Chinese Academy of Sciences Shanghai Cell Bank and cultured in a DMEM medium containing 10% fetal calf serum supplemented with 10 mg/ml streptomycin and 2 mmol/L L-glutamine at 37° C. under a 5% CO2 atmosphere.
S-180 cells were injected at a rate of 2.5×10^6/animal into the abdominal cavity of male Kunming mice and the animals were randomly divided into two groups (8 animals/group). […] Drug administration was performed three times per week. The mice were weighed three times per week. Once the experiment was complete, the animals were sacrificed via cervical dislocation. The abdominal cavities of all mice were opened to observe and assess ascites formation and abdominal wall tumors.

In the case of `CCN(CC)C(=S)SC` [methyl DDC], the Anticancer activity entry in [1] is “completely lack any anticancer activity”.

Turning to `Nc1nc2[nH]cc(CCc3ccc(C(=O)N[C@@H](CCC(=O)O)C(=O)O)cc3)c2c(=O)[nH]1` [PMTX, pemetrexed], the IC50 with MSTO mesothelioma cells [2] (Homo sapiens, 72 h) worked out at 920 nM. For the same molecule, in the data set with MSTO mesothelioma cells [2], the “Synergy index CI at ED50, MSTO” value was 0.399; the “Synergy index CI at ED75, MSTO” value is on record as 0.196; the “Synergy index CI at ED90, MSTO” value amounted to 0.102. Moreover, in the data set on Ju77 mesothelioma cells (Homo sapiens, 72 h), the IC50 was over 1000 nM. Besides, in the data set on Ju77 mesothelioma cells, the “Synergy index CI at ED50, Ju77” value was 0.308; the “Synergy index CI at ED75, Ju77” value is 0.431; the “Synergy index CI at ED90, Ju77” value worked out at 0.603. The IC50 in the data set with E58 mesothelioma cells (Homo sapiens, 72 h, E58 cells, 3 days incubation, MTT, read-out: IC50s (nM), inhibition of mesothelioma growth, E58) is over 1000 nM. In the data set with E58 mesothelioma cells, the “Synergy index CI at ED50, E58” value was 0.383; the “Synergy index CI at ED75, E58” value is on record as 0.384; the “Synergy index CI at ED90, E58” value was 0.503. For the same molecule, the IC50 with 2591 mesothelioma cells (Homo sapiens, 72 h) is over 1000 nM. In addition, in the data set on 2591 mesothelioma cells, the “Synergy index CI at ED50, 2591” value is on record as 0.341; the “Synergy index CI at ED75, 2591” value was determined as 0.253; the “Synergy index CI at ED90, 2591” value was determined as 0.603.

Consider `[NH2][Pt]([NH2])([Cl])[Cl]` [CDDP, cisplatin], for which, in the data set on MSTO mesothelioma cells [2], the IC50 was 4590 nM; the “Synergy index CI at ED50, MSTO” value is recorded as 0.567; the “Synergy index CI at ED75, MSTO” value amounted to 0.320; the “Synergy index CI at ED90, MSTO” value was 0.209. In the data set on Ju77 mesothelioma cells, the IC50 worked out at 8790 nM; the “Synergy index CI at ED50, Ju77” value amounted to 0.389; the “Synergy index CI at ED75, Ju77” value worked out at 0.346; the “Synergy index CI at ED90, Ju77” value was 0.319. Also, in the data set with E58 mesothelioma cells, the “Synergy index CI at ED50, E58” value came to 0.385; the “Synergy index CI at ED75, E58” value is on record as 0.355; the “Synergy index CI at ED90, E58” value came to 0.449. Also, in the data set with 2591 mesothelioma cells, the IC50 worked out at 9160 nM; the “Synergy index CI at ED50, 2591” value stood at 0.777; the “Synergy index CI at ED75, 2591” value worked out at 0.868; the “Synergy index CI at ED90, 2591” value was found to be 1.170. Also, the IC50 in data set [3] (A2780 cells, 3 days incubation, read-out: IC50s (nM), ovarian cancer cells, A2780) came to 4590 nM. Also, the “Synergy index CI at ED50, A2780” value in data set [3] (cisplatin (CDDP) combined with DS + Cu, ED50, A2780) is on record as 0.567. Besides, the “Synergy index CI at ED75, A2780” value in data set [3] (cisplatin (CDDP) combined with DS + Cu, ED75, A2780) was found to be 0.320. Further, the “Synergy index CI at ED90, A2780” value in data set [3] (cisplatin (CDDP) combined with DS + Cu, ED90, A2780) is reported as 0.209. Moreover, the “Synergy index CI at ED50, SKOV-3” value in data set [4] (ED50) is given as 0.389. The “Synergy index CI at ED75, SKOV-3” value in data set [4] (ED75) turned out to be 0.346. Also, the “Synergy index CI at ED90, SKOV-3” value in [4] (ED90) is listed as 0.319.

Regarding methylated disulfiram, the Anticancer activity entry in [1] is “completely loses its anticancer activity”.

Take `CCN(CC)C(=S)SSC(=S)N(CC)CC` [disulfiram]: the “Survival rate, mesothelioma mice” value in the data set with MSTO mesothelioma cells [5] (disulfiram 40 μg/animal (2 mg/kg) i.p. + CuGlu 5 mg/kg oral, Day 90) was determined as 60%. For the same molecule, in the data set with MSTO mesothelioma cells [5] (setting [9]), the “Ascites, mesothelioma mice” value is “did not reveal any ascites” and the “Cancer nodules / masses, mesothelioma mice” value is reported as “only a small number of masses had formed”. For the same molecule, the “Survival rate, ovarian cancer mice” value in data set [6] (disulfiram 40 μg/animal (2 mg/kg) i.p. + CuGlu 5 mg/kg oral, Day 60) is reported as 90%. Besides, the “Cancer nodules / masses, ovarian cancer mice” value in data set [6] (disulfiram 40 μg/animal i.p. + CuGlu oral, Day 60) is reported as “only a small number of masses had formed”. Further, in [6] (disulfiram 40 μg/animal i.p. + CuGlu oral, as of Day 60), the “Ascites, ovarian cancer mice” value is “did not reveal any ascites”. In the data set with S180 ascites tumor cells (setting [10]), the “Mean ascites volume per mouse” value stood at 0 ml per mouse and the “Number of cancer nodules per mouse” value was 0 nodules per mouse. In the data set on S180 ascites tumor cells (disulfiram 5 mg/kg i.p. + CuGlu 5 mg/kg oral), the “Formation of ascites and masses at laparotomy” value is “no formation of ascites or masses was observed”. Besides, the “Formation of ascites and masses at laparotomy” value with S180 ascites tumor cells (disulfiram 5 mg/kg i.p. + CuGlu 5 mg/kg oral, listed as DS) is “no formation of ascites or tumor nodules”. Besides, the “Effect on peritoneal metastasis” value with S180 ascites tumor cells (disulfiram 5 mg/kg i.p. with oral copper gluconate, S180 tumor-bearing mice) is “completely eliminate the animals' peritoneal metastasis”. Also, the “Body weight compared with control group” value with S180 ascites tumor cells (one week after injection of the cells) is given as “significantly lower than that of mice in the control group”. Also, the “Half-life of reduction by the glutathione reductase system in red blood cells” value in data set [7] is 4 min. Moreover, the Blood concentration entry in data set [8] is given as “below the detection limit”.

Turning to `CCN(CC)C(=S)SC1OC(C(=O)O)C(O)C(O)C1O` (stereo not shown) [glucuronic acid DDC], the Anticancer activity entry in [1] is on record as “completely lack any anticancer activity”.
